Each compound was assayed against recombinant human nicotinic acid receptor (NAR) (Homo sapiens, UniProt Q8TDS4) (assay: Nicotinic Acid Receptor Assay: inhibition of forskolin-stimulated cAMP accumulation in CHO cells (MesoScale Discovery cAMP kit)). Conditions: CHO cells expressing recombinant human NAR; forskolin-stimulated cAMP; read-out: NA EC50 camp.
Type: cell-based
In short: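 Compounds were diluted in PBS containing 6 μM forskolin and incubated with cells for 30 min at room temperature. cAMP was quantified by the MesoScale kit against an on-plate standard curve.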

Chain of recombinant human nicotinic acid receptor (NAR) (Q8TDS4 whole entry): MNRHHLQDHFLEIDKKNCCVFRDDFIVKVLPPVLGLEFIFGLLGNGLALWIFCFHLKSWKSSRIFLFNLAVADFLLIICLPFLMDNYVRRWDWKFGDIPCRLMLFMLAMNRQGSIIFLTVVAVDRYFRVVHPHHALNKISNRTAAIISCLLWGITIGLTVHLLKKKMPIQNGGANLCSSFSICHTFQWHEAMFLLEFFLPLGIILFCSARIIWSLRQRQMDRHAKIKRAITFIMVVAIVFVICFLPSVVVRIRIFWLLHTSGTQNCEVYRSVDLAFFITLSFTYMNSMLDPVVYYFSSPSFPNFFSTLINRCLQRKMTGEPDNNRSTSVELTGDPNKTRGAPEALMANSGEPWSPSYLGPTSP

Structure (SMILES) | EC50 [nM]
CCc1noc(C)c1COc1nc2oc(=O)cc(CC)c2c(=O)[nH]1 [Compound 666] | 0.001 to 100
CC1(CCc2cc(=O)oc3[nH]c(=O)[nH]c(=O)c23)CC1 [Compound 272] | 100 to 1000
CCc1cc(=O)oc2nc(OCc3ccc(C#N)cc3)[nH]c(=O)c12 [Compound 630] | > 1000
CCn1c(=O)[nH]c(=O)c2c(C)cc(=O)oc21 [Compound 291] | > 1000
O=c1[nH]c(=O)c2c(CC3CC3)cc(=O)oc2[nH]1 [Compound 206] | 100 to 1000
CCc1cc(=O)oc2nc(OCc3cc(-c4ccccc4)oc3C)[nH]c(=O)c12 [Compound 542] | > 1000
O=c1[nH]c(=O)c2c(C3CC3)cc(=O)oc2[nH]1 [Compound 283] | 100 to 1000
CCc1cc(=O)oc2nc(OCc3nccc4ccccc34)[nH]c(=O)c12 [Compound 528] | 100 to 1000
CCc1cc(=O)oc2nc(OCc3cccc(-c4ccccc4)n3)[nH]c(=O)c12 [Compound 520] | > 1000
CCc1cc(=O)oc2nc(OCC#Cc3ccccc3)[nH]c(=O)c12 [Compound 522] | 100 to 1000
CCc1cc(=O)oc2nc(OCCO)[nH]c(=O)c12 [Compound 643] | 100 to 1000
CCc1cc(=O)oc2nc(OCc3cccc(-c4ccc(OC)c(OC)c4)c3)[nH]c(=O)c12 [Compound 565] | 100 to 1000
CCc1cc(=O)oc2nc(OCCN3CCOC3=O)[nH]c(=O)c12 [Compound 620] | > 1000
O=c1[nH]c(=O)c2c(CCC3CCC3)c(-c3ccc(C(F)(F)F)cc3)c(=O)oc2[nH]1 [Compound 701] | > 1000
CCc1cc(=O)oc2nc(OCc3ccc4c(c3)nnn4C)[nH]c(=O)c12 [Compound 543] | 100 to 1000
CCc1cc(=O)oc2nc(OCc3conc3C)[nH]c(=O)c12 [Compound 665] | > 1000
CC/C=C\CCc1cc(=O)oc2c1c(=O)[nH]c(=O)n2CC1CC1 [Compound 253] | > 1000
Cc1ccccc1-c1cc(CCCc2cc(=O)oc3[nH]c(=O)[nH]c(=O)c23)on1 [Compound 243] | 100 to 1000
CCc1cc(=O)oc2nc(OCC(C)(O)c3ccccc3)[nH]c(=O)c12 (stereo not shown) [Compound 599] | 100 to 1000
CCc1cc(=O)oc2nc(OCc3ccccc3-c3ccc(CO)cc3)[nH]c(=O)c12 [Compound 548] | 100 to 1000
COCCCc1cc(=O)oc2[nH]c(=O)[nH]c(=O)c12 [Compound 209] | 100 to 1000

Structure (SMILES) | EC50 [nM]
O=c1[nH]c(=O)c2c(CC3CCNC3)cc(=O)oc2[nH]1 (stereo not shown) [Compound 244] | > 1000
CCc1cc(=O)oc2nc(OCc3ccccc3-c3ccc(CO[Si](C)(C)C(C)(C)C)cc3)[nH]c(=O)c12 [Compound 651] | 100 to 1000
CCc1cc(=O)oc2nc(OCc3cccc(-c4ccc(OC)nc4)c3)[nH]c(=O)c12 [Compound 562] | 100 to 1000
CCc1cc(=O)oc2nc(OCC#CC(C)OC)[nH]c(=O)c12 (stereo not shown) [Compound 672] | 100 to 1000
CCc1cc(=O)oc2nc(OCC[Si](C)(C)C)[nH]c(=O)c12 [Compound 637] | 100 to 1000
CC(=O)NCCCc1cc(=O)oc2[nH]c(=O)[nH]c(=O)c12 [Compound 237] | > 1000
C=COCCOc1nc2oc(=O)cc(CC)c2c(=O)[nH]1 [Compound 581] | > 1000
CCc1noc(C)c1COc1nc2oc(=O)cc(CCC3CCCC3)c2c(=O)[nH]1 [Compound 689] | 100 to 1000
CCc1cc(=O)oc2nc(OCc3cc(Cl)ccc3OC)[nH]c(=O)c12 [Compound 507] | 0.001 to 100
CCc1cc(=O)oc2nc(OCc3cnco3)[nH]c(=O)c12 [Compound 657] | > 1000
O=c1cc(CCCc2cccs2)c2c(=O)[nH]c(=O)n(CC3CC3)c2o1 [Compound 255] | > 1000
O=c1[nH]c(=O)c2c(CCCOc3ccccc3)cc(=O)oc2[nH]1 [Compound 208] | > 1000
CCOC(=O)CCc1cc(=O)oc2[nH]c(=O)[nH]c(=O)c12 [Compound 222] | > 1000
CCc1cc(=O)oc2nc(OCC#CC(O)CC)[nH]c(=O)c12 (stereo not shown) [Compound 671] | 0.001 to 100
CCOC(=O)COc1nc2oc(=O)cc(CC)c2c(=O)[nH]1 [Compound 519] | > 1000
O=c1cc(CCCCC2CC2)c2c(=O)n(C3CCC3)c(=O)[nH]c2o1 [Compound 200] | 100 to 1000
CCc1cc(=O)oc2nc(OCC#Cc3cccc(Cl)c3)[nH]c(=O)c12 [Compound 626] | 0.001 to 100
CCc1cc(=O)oc2nc(OCC3=Cc4ccccc4S3(=O)=O)[nH]c(=O)c12 [Compound 604] | 100 to 1000
CCc1cc(=O)oc2nc(OCc3ccnc(NC(=O)C(C)(C)C)c3)[nH]c(=O)c12 [Compound 653] | > 1000
CCCCc1cc(=O)oc2[nH]c(=O)n(CC3CC3)c(=O)c12 [Compound 258] | 100 to 1000
CCc1cc(=O)oc2nc(OCc3ccccc3-c3cccc(COC)c3)[nH]c(=O)c12 [Compound 549] | 100 to 1000

Structure (SMILES) | EC50 [nM]
CCc1cc(=O)oc2nc(OC(C)c3ccc(-c4ccccc4)cc3F)[nH]c(=O)c12 (stereo not shown) [Compound 569] | 0.001 to 100
O=c1[nH]c(=O)c2c(CCC(C3CC3)C3CC3)cc(=O)oc2[nH]1 [Compound 293] | 100 to 1000
CCCCc1cc(=O)oc2nc(OCc3cc[n+]([O-])cc3)[nH]c(=O)c12 [Compound 681] | > 1000
O=c1cc(CCCc2cccs2)c2c(=O)n(C3CCC3)c(=O)[nH]c2o1 [Compound 281] | 100 to 1000
CCc1cc(=O)oc2nc(OCc3ccccc3-c3ccc(F)c(C#N)c3)[nH]c(=O)c12 [Compound 584] | 100 to 1000
CN(C)CCOc1nc2oc(=O)cc(Cc3cccc(F)c3)c2c(=O)[nH]1 [Compound 683] | > 1000
CCc1cc(=O)oc2nc(OCc3cc(Br)cs3)[nH]c(=O)c12 [Compound 534] | 100 to 1000
CCc1cc(=O)oc2nc(OCc3ccccc3-c3cccc(C(=O)NC4CC4)c3)[nH]c(=O)c12 [Compound 553] | > 1000
CCc1cc(=O)oc2nc(OCc3cc(F)cc(F)c3)[nH]c(=O)c12 [Compound 506] | > 1000
CCc1cc(=O)oc2nc(OCc3cc(C)nn3C)[nH]c(=O)c12 [Compound 529] | 100 to 1000
CC(C)(C#N)CCCc1cc(=O)oc2[nH]c(=O)[nH]c(=O)c12 [Compound 288] | > 1000
O=c1[nH]c(=O)c2c(CCC#Cc3ccccc3)cc(=O)oc2[nH]1 [Compound 220] | > 1000
CCOC(=O)NOc1nc2oc(=O)cc(CCC3CCCC3)c2c(=O)[nH]1 [Compound 693] | 100 to 1000
CC(C)(C)CCCc1cc(=O)oc2[nH]c(=O)[nH]c(=O)c12 [Compound 262] | 0.001 to 100
CC(C)(C)OC(=O)N1CCC(Cc2cc(=O)oc3[nH]c(=O)[nH]c(=O)c23)CC1 [Compound 221] | > 1000
CC(Cc1cc(=O)oc2[nH]c(=O)[nH]c(=O)c12)CC(C)(C)C (stereo not shown) [Compound 248] | > 1000
CCc1cc(=O)oc2nc(OCCSc3ccccn3)[nH]c(=O)c12 [Compound 655] | 100 to 1000
O=c1[nH]c(=O)c2c3c(c(=O)oc2[nH]1)CCCCCC3 [Compound 211] | > 1000
O=C(OCc1ccccc1)N1CCC(Cc2cc(=O)oc3[nH]c(=O)[nH]c(=O)c23)C1 (stereo not shown) [Compound 233] | > 1000

Same assay, conditions: NA EC50 camp (nM), CHO cells expressing recombinant human NAR; forskolin-stimulated cAMP

Structure (SMILES) | EC50 [nM]
CCc1noc(CC)c1COc1nc2oc(=O)cc(CC)c2c(=O)[nH]1 [Compound 667] | 100 to 1000
CCc1cc(=O)oc2nc(OCC#CCCCO)[nH]c(=O)c12 [Compound 645] | 0.001 to 100
CCCC#CCOc1nc2oc(=O)cc(CC)c2c(=O)[nH]1 [Compound 557] | 0.001 to 100
CC#CCCOc1nc2oc(=O)cc(CC)c2c(=O)[nH]1 [Compound 590] | 100 to 1000

Same assay, conditions: NA EC50 camp, inhibition of forskolin-stimulated cAMP accumulation, CHO cells expressing recombinant human NAR

Structure (SMILES) | EC50 [nM]
CCc1cc(=O)oc2nc[nH]c(=O)c12 [Compound 807] | > 10000

Same assay, conditions: inhibition of forskolin-stimulated cAMP accumulation, CHO cells expressing recombinant human NAR; read-out: NA EC50 camp

Structure (SMILES) | EC50 [nM]
O=c1cc(CCC2CC2)c2c(=O)n(C3CCC3)c(=O)[nH]c2o1 [Compound 780] | 36
O=c1cc(CCC2CC2)c2c(=O)[nH]c(OCC#CC3CC3)nc2o1 [Compound 722] | 111
CCCCc1cc(=O)oc2nc(OCC#CC(O)CC)[nH]c(=O)c12 (stereo not shown) [Compound 736] | 32.9
CCc1cc(=O)oc2nc(OC(C)c3ccccc3F)[nH]c(=O)c12 (stereo not shown) [Compound 90] | 475
O=c1nc(OCC(F)F)c2c(CCC3CCC3)cc(=O)oc2[nH]1 [Compound 830] | 112
CCCCCc1cc(=O)oc2nc(CF)[nH]c(=O)c12 [Compound 744] | 128
CCCCc1cc(=O)oc2nc(C(F)(F)F)[nH]c(=O)c12 [Compound 764] | 8920
O=c1nc(OCCF)c2c(CCCC3CC3)cc(=O)oc2[nH]1 [Compound 824] | 91
CCCCc1cc(=O)oc2[nH]c(=O)nc(OCC(F)F)c12 [Compound 828] | 407
CCCCc1cc(=O)oc2[nH]c(=O)n(O)c(=O)c12 [Compound 806] | 256
CCn1c(=O)[nH]c2oc(=O)cc(CCC3CCC3)c2c1=O [Compound 783] | 64
CCc1cc(=O)oc2nc(OCC#CC(C)OC)[nH]c(=O)c12 (stereo not shown) [Compound 723] | 296
COCCn1c(=O)[nH]c(=O)c2c(CCC3CC3)cc(=O)oc21 [Compound 801] | > 10000
CCc1cc(=O)oc2[nH]c(=O)n(OC)c(=O)c12 [Compound 768] | 384
O=c1cc(CCC2CCC2)c2c(=O)[nH]c(CF)nc2o1 [Compound 749] | 182
CCC(C)CCc1cc(=O)oc2nc(C(F)F)[nH]c(=O)c12 (stereo not shown) [Compound 812] | 40
O=c1nc(OCC(F)F)c2c(CCCC3CC3)cc(=O)oc2[nH]1 [Compound 831] | 531
CC(C)(C)CCCc1cc(=O)oc2[nH]c(=O)[nH]c(=O)c12 [Compound 262] | 49.9
CCCc1cc(=O)oc2[nH]c(=O)n(CF)c(=O)c12 [Compound 817] | 1450
O=c1cc(CCCC2CC2)c2c(=O)[nH]c(CF)nc2o1 [Compound 741] | 123
CCCCc1cc(=O)oc2[nH]c(=O)n(N3CCOCC3)c(=O)c12 [Compound 797] | > 1000
CC#CCOc1nc2oc(=O)cc(CCCC3CC3)c2c(=O)[nH]1 [Compound 717] | 259

— patent US7737155B2, “Nitrogen-containing heterocyclic compounds and methods of use thereof” (Schering Corporation, priority 2005, dated 2010)
